Test results from patent US7388025B2, “3-aryl-isoxazole-4-carbonyl-benzofuran derivatives” (Hoffman-La Roche Inc., priority 2005, dated 2008).

Biological target: T1, human GABA A receptor α5β3γ2 (Homo sapiens, UniProt P18507+P31644)
T1 construct: expressed in transfected cells; host or cells: HEK293 cells, transiently transfected; membranes prepared from them
Assay: [3H]flumazenil competition binding, HEK293 cells expressing human GABA A α5β3γ2 receptors
Settings: human α5β3γ2 in HEK293 (transiently transfected), 0.5 nM [3H]flumazenil, mean of two determinations; read-out: Ki[nM] hα5
Protocol: Membrane Preparation and Binding Assay
The affinity of compounds at GABA A receptor subtypes was measured by competition for [3H]flumazenil (85 Ci/mmol; Roche) binding to HEK293 cells expressing rat (stably transfected) or human (transiently transfected) receptors of composition α1β3γ2, α2β3γ2, α3β3γ2 and α5β3γ2.
Cell pellets were suspended in Krebs-tris buffer (4.8 mM KCl, 1.2 mM CaCl2, 1.2 mM MgCl2, 120 mM NaCl, 15 mM Tris; pH 7.5; binding assay buffer), homogenized by polytron for ca. 20 sec on ice and centrifuged for 60 min at 4° C. (50000 g; Sorvall, rotor: SM24=20000 rpm). The cell pellets were resuspended in Krebs-tris buffer and homogenized by polytron for ca. 15 sec on ice. Protein was measured (Bradford method, Bio-Rad) and aliquots of 1 mL were prepared and stored at −80° C.
Radioligand binding assays were carried out in a volume of […] (96-well plates) which contained […] of cell memebranes, [3H]flumazenil at a concentration of 1 nM for α1, α2, α3 subunits and 0.5 nM for α5 subunits and the test compound in the range of […]. Nonspecific binding was defined by 10^−5 M diazepam and typically represented less than 5% of the total binding. Assays were incubated to equilibrium for 1 hour at 4° C. and harvested onto GF/C uni-filters (Packard) by filtration using a Packard harvester and washing with ice-cold wash buffer (50 mM Tris; pH 7.5). After drying, filter-retained radioactivity was detected by liquid scintillation counting. Ki values were calculated using Excel-Fit (Microsoft) and are the means of two determinations.

Row | Structure (SMILES) | Ki [nM]
1 | Cc1onc(-c2ccccc2)c1C(=O)c1cc2ccccc2o1 [Example 1, Benzofuran-2-yl-(5-methyl-3-phenyl-isoxazol-4-yl)-methanone] | 15.2
2 | Cc1onc(-c2ccccc2)c1C(=O)c1cc2cccc(F)c2o1 [Example 2, (7-Fluoro-benzofuran-2-yl)-(5-methyl-3-phenyl-isoxazol-4-yl)-methanone] | 17.8
3 | Cc1onc(-c2ccccc2)c1C(=O)c1cc2cccc(Br)c2o1 [Example 3, (7-Bromo-benzofuran-2-yl)-(5-methyl-3-phenyl-isoxazol-4-yl)-methanone] | 7.5
4 | Cc1onc(-c2ccccc2)c1C(=O)c1cc2cccc(O)c2o1 [Example 4, (7-Hydroxy-2-benzofuranyl)(5-methyl-3-phenyl-4-isoxazolyl)methanone] | 6.9
5 | COc1cccc2cc(C(=O)c3c(-c4ccccc4)noc3C)oc12 [Example 5, (7-Methoxy-benzofuran-2-yl)-(5-methyl-3-phenyl-isoxazol-4-yl)-methanone] | 4
6 | CCOc1cccc2cc(C(=O)c3c(-c4ccccc4)noc3C)oc12 [Example 6, (7-Ethoxy-benzofuran-2-yl)-(5-methyl-3-phenyl-isoxazol-4-yl)-methanone] | 6.5
7 | Cc1onc(-c2ccccc2)c1C(=O)c1cc2cccc(OCc3ccccn3)c2o1 [Example 8, (5-Methyl-3-phenyl-isoxazol-4-yl)-[7-(pyridin-2-ylmethoxy)-benzofuran-2-yl]-methanone] | 16.7
8 | Cc1onc(-c2ccccc2)c1C(=O)c1cc2cccc(OCc3cccnc3)c2o1 [Example 9, (5-Methyl-3-phenyl-isoxazol-4-yl)-[7-(pyridin-3-ylmethoxy)-benzofuran-2-yl]-methanone] | 31.3
9 | Cc1onc(-c2ccccc2)c1C(=O)c1cc2cccc(OCc3ccncc3)c2o1 [Example 10, (5-Methyl-3-phenyl-isoxazol-4-yl)-[7-(pyridin-4-ylmethoxy)-benzofuran-2-yl]-methanone] | 27.9
10 | Cc1onc(-c2ccccc2)c1C(=O)c1cc2cccc(OCC(=O)NC(C)C)c2o1 [Example 13, N-Isopropyl-2-[2-(5-methyl-3-phenyl-isoxazole-4-carbonyl)-benzofuran-7-yloxy]-acetamide] | 1.8
11 | Cc1onc(-c2ccccc2)c1C(=O)c1cc2cccc(OCc3ncnn3C)c2o1 [Example 14, (5-Methyl-3-phenyl-isoxazol-4-yl)-[7-(2-methyl-2H-[1,2,4]triazol-3-ylmethoxy)-benzofuran-2-yl]-methanone] | 13.8
12 | Cc1cc(COc2cccc3cc(C(=O)c4c(-c5ccccc5)noc4C)oc23)on1 [Example 15, [7-(3-Methyl-isoxazol-5-ylmethoxy)-benzofuran-2-yl]-(5-methyl-3-phenyl-isoxazol-4-yl)-methanone] | 18.9
13 | Cc1onc(-c2ccccc2)c1C(=O)c1cc2ccc(O)cc2o1 [Example 16, (6-Hydroxy-benzofuran-2-yl)-(5-methyl-3-phenyl-isoxazol-4-yl)-methanone] | 3.7
14 | COc1ccc2cc(C(=O)c3c(-c4ccccc4)noc3C)oc2c1 [Example 17, (6-Methoxy-benzofuran-2-yl)-(5-methyl-3-phenyl-isoxazol-4-yl)-methanone] | 3.5
15 | Cc1onc(-c2ccccc2)c1C(=O)c1cc2cc(Cl)ccc2o1 [Example 19, (5-Chloro-benzofuran-2-yl)-(5-methyl-3-phenyl-isoxazol-4-yl)-methanone] | 20
16 | Cc1onc(-c2ccccc2)c1C(=O)c1cc2cc(Br)ccc2o1 [Example 20, (5-Bromo-benzofuran-2-yl)-(5-methyl-3-phenyl-isoxazol-4-yl)-methanone] | 41.6
17 | COc1ccc2oc(C(=O)c3c(-c4ccccc4)noc3C)cc2c1 [Example 22, (5-Methoxy-benzofuran-2-yl)-(5-methyl-3-phenyl-isoxazol-4-yl)-methanone] | 4.6
18 | Cc1onc(-c2ccccc2)c1C(=O)c1cc2cc(OC(F)(F)F)ccc2o1 [Example 23, (5-Methyl-3-phenyl-isoxazol-4-yl)-(5-trifluoromethoxy-benzofuran-2-yl)-methanone] | 10.1

Further lines, results first:

Row | Ki [nM] | Structure (SMILES)
19 | 10.6 | COc1cccc2oc(C(=O)c3c(-c4ccccc4)noc3C)cc12 [Example 25, (4-Methoxy-benzofuran-2-yl)-(5-methyl-3-phenyl-isoxazol-4-yl)-methanone]
20 | 4.3 | COc1cc(OC)c2cc(C(=O)c3c(-c4ccccc4)noc3C)oc2c1 [Example 26, (4,6-Dimethoxy-benzofuran-2-yl)-(5-methyl-3-phenyl-isoxazol-4-yl)-methanone]
21 | 13.7 | Cc1onc(-c2ccccc2)c1C(=O)c1cc2c(ccc3ccccc32)o1 [Example 27, (5-Methyl-3-phenyl-isoxazol-4-yl)-naphtho[2,1-b]furan-2-yl-methanone]
22 | 8.1 | Cc1onc(-c2ccc(Br)cc2)c1C(=O)c1cc2ccccc2o1 [Example 28, Benzofuran-2-yl-[3-(4-bromo-phenyl)-5-methyl-isoxazol-4-yl]-methanone]
23 | 11.7 | Cc1onc(-c2ccc(Br)cc2)c1C(=O)c1cc2cccc(F)c2o1 [Example 29, [3-(4-Bromo-phenyl)-5-methyl-isoxazol-4-yl]-(7-fluoro-benzofuran-2-yl)-methanone]
24 | 17.4 | Cc1onc(-c2ccc(Br)cc2)c1C(=O)c1cc2cccc(O)c2o1 [Example 30, [3-(4-Bromo-phenyl)-5-methyl-isoxazol-4-yl]-(7-hydroxy-benzofuran-2-yl)-methanone]
25 | 3.7 | COc1cccc2cc(C(=O)c3c(-c4ccc(Br)cc4)noc3C)oc12 [Example 31, [3-(4-Bromo-phenyl)-5-methyl-isoxazol-4-yl]-(7-methoxy-benzofuran-2-yl)-methanone]
26 | 9.4 | CCOc1cccc2cc(C(=O)c3c(-c4ccc(Br)cc4)noc3C)oc12 [Example 32, [3-(4-Bromo-phenyl)-5-methyl-isoxazol-4-yl]-(7-ethoxy-benzofuran-2-yl)-methanone]
27 | 32.9 | Cc1onc(-c2ccc(Br)cc2)c1C(=O)c1cc2cccc(OC(C)C)c2o1 [Example 33, [3-(4-Bromo-phenyl)-5-methyl-isoxazol-4-yl]-(7-isopropoxy-benzofuran-2-yl)-methanone]
28 | 36.3 | Cc1onc(-c2ccc(Br)cc2)c1C(=O)c1cc2cccc(OCc3ccccn3)c2o1 [Example 34, [3-(4-Bromo-phenyl)-5-methyl-isoxazol-4-yl]-[7-(pyridin-2-ylmethoxy)-benzofuran-2-yl]-methanone]
29 | 36.4 | Cc1onc(-c2ccc(Br)cc2)c1C(=O)c1cc2cccc(OCc3cccnc3)c2o1 [Example 35, [3-(4-Bromo-phenyl)-5-methyl-isoxazol-4-yl]-[7-(pyridin-3-ylmethoxy)-benzofuran-2-yl]-methanone]
30 | 35.9 | Cc1onc(-c2ccc(Br)cc2)c1C(=O)c1cc2cccc(OCc3ccncc3)c2o1 [Example 36, [3-(4-Bromo-phenyl)-5-methyl-isoxazol-4-yl]-[7-(pyridin-4-ylmethoxy)-benzofuran-2-yl]-methanone]
31 | 2.3 | Cc1onc(-c2ccc(Br)cc2)c1C(=O)c1cc2cccc(OCC(=O)NC(C)C)c2o1 [Example 37, 2-{2-[3-(4-Bromo-phenyl)-5-methyl-isoxazole-4-carbonyl]-benzofuran-7-yloxy}-N-isopropyl-acetamide]
32 | 15.1 | Cc1onc(-c2ccc(Br)cc2)c1C(=O)c1cc2cccc(OCc3ncnn3C)c2o1 [Example 38, [3-(4-Bromo-phenyl)-5-methyl-isoxazol-4-yl]-[7-(2-methyl-2H-[1,2,4]triazol-3-ylmethoxy)-benzofuran-2-yl]-methanone]
33 | 63.8 | Cc1cc(COc2cccc3cc(C(=O)c4c(-c5ccc(Br)cc5)noc4C)oc23)on1 [Example 39, [3-(4-Bromo-phenyl)-5-methyl-isoxazol-4-yl]-[7-(3-methyl-isoxazol-5-ylmethoxy)-benzofuran-2-yl]-methanone]
34 | 9.3 | Cc1onc(-c2ccc(Br)cc2)c1C(=O)c1cc2ccc(O)cc2o1 [Example 40, [3-(4-Bromo-phenyl)-5-methyl-isoxazol-4-yl]-(6-hydroxy-benzofuran-2-yl)-methanone]
35 | 3.1 | COc1ccc2cc(C(=O)c3c(-c4ccc(Br)cc4)noc3C)oc2c1 [Example 41, [3-(4-Bromo-phenyl)-5-methyl-isoxazol-4-yl]-(6-methoxy-benzofuran-2-yl)-methanone]
36 | 4.6 | Cc1onc(-c2ccc(Br)cc2)c1C(=O)c1cc2cc(O)ccc2o1 [Example 42, [3-(4-Bromo-phenyl)-5-methyl-isoxazol-4-yl]-(5-hydroxy-benzofuran-2-yl)-methanone]
37 | 2.9 | COc1ccc2oc(C(=O)c3c(-c4ccc(Br)cc4)noc3C)cc2c1 [Example 43, [3-(4-Bromo-phenyl)-5-methyl-isoxazol-4-yl]-(5-methoxy-benzofuran-2-yl)-methanone]
38 | 4.8 | COc1cccc2oc(C(=O)c3c(-c4ccc(Br)cc4)noc3C)cc12 [Example 44, [3-(4-Bromo-phenyl)-5-methyl-isoxazol-4-yl]-(4-methoxy-benzofuran-2-yl)-methanone]
